Key:
CD25 = test: Binding of biotinylated IL-2 to CD25-Fc fusion protein on ELISA plates with or without peptide 3028; conditions: CD25-Fc on protein G coated plates
Source text: Based on this observation, the effect of peptide 3028 on the binding of IL-2 to CD25 was studied. […] Amazingly, the binding of IL-2 to CD25 was enhanced by peptide 3028, indicating a three-part interaction between IL-2, CD25 and 3028.

[1] = target: T1, β2-integrin LFA-1 (CD11a) (Homo sapiens, UniProt P20701); test: Immunocytochemical staining of PBMC and THP-1 with anti-integrin (CD11a) antibody with or without albumin peptides; type: binding; conditions: mononuclear blood cells
T1 construct: endogenous in cells; host or cells: human PBMC (healthy controls, cancer patients) and THP-1 monocytic cell line (ATCC)
T1 sequence (P20701 26-1170): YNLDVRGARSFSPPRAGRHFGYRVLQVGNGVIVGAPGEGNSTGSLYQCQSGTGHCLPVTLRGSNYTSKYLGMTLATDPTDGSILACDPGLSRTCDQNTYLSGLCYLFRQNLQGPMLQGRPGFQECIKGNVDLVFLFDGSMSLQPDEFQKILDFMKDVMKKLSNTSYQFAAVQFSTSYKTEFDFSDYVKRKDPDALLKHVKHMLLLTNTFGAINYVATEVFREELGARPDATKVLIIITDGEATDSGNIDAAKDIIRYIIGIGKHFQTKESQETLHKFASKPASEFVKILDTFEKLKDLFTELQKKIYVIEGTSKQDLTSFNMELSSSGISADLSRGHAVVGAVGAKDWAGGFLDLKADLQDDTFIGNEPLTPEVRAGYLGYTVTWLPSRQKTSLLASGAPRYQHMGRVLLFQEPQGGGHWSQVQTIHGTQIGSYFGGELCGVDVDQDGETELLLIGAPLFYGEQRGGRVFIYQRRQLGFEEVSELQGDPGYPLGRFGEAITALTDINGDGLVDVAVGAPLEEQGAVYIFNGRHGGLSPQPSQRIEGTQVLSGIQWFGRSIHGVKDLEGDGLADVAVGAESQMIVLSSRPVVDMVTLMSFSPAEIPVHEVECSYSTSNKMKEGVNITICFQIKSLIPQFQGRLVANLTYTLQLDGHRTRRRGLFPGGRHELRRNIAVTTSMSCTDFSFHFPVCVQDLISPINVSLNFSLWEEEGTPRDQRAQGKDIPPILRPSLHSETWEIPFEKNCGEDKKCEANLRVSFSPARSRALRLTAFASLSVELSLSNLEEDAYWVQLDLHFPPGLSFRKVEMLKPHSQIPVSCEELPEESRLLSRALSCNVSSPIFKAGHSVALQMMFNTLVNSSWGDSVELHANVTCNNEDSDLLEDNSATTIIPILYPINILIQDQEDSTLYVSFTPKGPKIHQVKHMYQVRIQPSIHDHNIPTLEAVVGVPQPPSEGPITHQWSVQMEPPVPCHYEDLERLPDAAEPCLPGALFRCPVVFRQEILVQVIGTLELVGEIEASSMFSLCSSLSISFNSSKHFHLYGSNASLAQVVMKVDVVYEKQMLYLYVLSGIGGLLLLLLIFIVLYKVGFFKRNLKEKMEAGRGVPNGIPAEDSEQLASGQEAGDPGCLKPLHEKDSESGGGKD
T1 sequence (P05107 23-769 partner): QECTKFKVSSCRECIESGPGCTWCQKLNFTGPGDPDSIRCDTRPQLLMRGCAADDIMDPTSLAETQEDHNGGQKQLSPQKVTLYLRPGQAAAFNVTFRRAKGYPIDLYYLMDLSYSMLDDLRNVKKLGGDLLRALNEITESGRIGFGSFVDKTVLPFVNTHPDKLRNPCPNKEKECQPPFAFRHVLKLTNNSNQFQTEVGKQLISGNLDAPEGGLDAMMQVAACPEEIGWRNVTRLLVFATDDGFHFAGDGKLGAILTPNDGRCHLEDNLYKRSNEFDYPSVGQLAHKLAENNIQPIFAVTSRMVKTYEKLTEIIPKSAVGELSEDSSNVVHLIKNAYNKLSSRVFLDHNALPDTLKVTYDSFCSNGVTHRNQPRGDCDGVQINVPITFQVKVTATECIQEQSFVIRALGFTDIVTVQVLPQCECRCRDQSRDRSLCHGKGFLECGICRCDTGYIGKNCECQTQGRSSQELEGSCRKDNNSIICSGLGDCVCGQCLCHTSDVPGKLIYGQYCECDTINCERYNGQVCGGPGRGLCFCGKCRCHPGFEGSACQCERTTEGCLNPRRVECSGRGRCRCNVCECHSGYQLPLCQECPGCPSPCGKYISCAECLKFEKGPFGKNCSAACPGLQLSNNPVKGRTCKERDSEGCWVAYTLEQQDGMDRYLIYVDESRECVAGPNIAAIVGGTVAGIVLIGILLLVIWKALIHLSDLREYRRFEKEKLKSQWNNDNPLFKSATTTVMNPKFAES
Protocol: Cytospin preparations of mononuclear blood cells from healthy controls, cancer patients and a monocytic cell line, THP-1, were prepared (as described under materials and methods), dried and stored at −70° C. In the immunocytological staining, unspecific staining was blocked by incubation with 10% human AB serum. Some of the slides were preincubated for 60 minutes with albumin peptides at a concentration of 40 μg/ml, added to this 10% AB serum, as indicated in the FIG. 8 A-F. The staining procedure was then continued as described in material and methods. The staining intensity of slides stained with and without preincubation with the peptides was recorded semi quantitatively using a standard light microscope.
PBMC were separated as described above. Cultured THP-1 cells (obtained from the American Type Culture Collection through LGL Nordic AB, Sweden) were carefully washed and suspended in RPMI1640. PBMC and THP-1 were immediately spun down on pre-cleaned microscope slides in a Shandon Cytospin (Shandon Scientific Ltd, UK) at 1000 RPM for 7 min at 2.5 or 5×10^4 cells per slide. The slides were left to dry at room temperature over night, after which they were wrapped in parafilm and stored at −70° C. Immediately before use, the cytospins were thawed and fixed with acetone for 5 min at room temperature. The cytospins were first blocked with 10% normal human AB-serum with and without albumin peptides (40 ␣g/ml) for 1 h before staining. Primary antibody, consisting of a monoclonal mouse anti-human CD11a (clone HI111, BD Biosciences) diluted in Tris buffered saline (TBS, pH 7.6) at 5 μg/ml (THP-1) or 1 µg/ml (PBMC), was added. The slides were incubated for 30 min and then washed in TBS followed by Envision-Alkaline Phosphatase (Dako Norden A/S, Denmark) for 30 min. After additional washing in TBS, the slides were incubated in alkaline phoshatase substrate consisting of Fast Red TR salt (Sigma), naphtol AS-MX (Sigma) and 5 mM levamisol (Sigma) to block endogenous alkaline phosphatase activity, for 20 min followed by washing in TBS. They were then counterstained in Mayer's haematoxylin for 1 minute and mounted in Glycergel (Dako Norden NS). Monoclonal mouse IgG1 against an irrelevant antigen (Aspergillus niger glukosoxidase, Dako Norden NS) was used as a negative control. All incubations were performed at room temperature in a moist chamber.
FIG. 24. Inhibition of the binding of anti-LFA-1, mab HI111, to mononuclear blood cells by 3028 peptide and fragments 3325 and 3218. A standard immunohistochemical staining procedure using acetone fixation, 10% human AB-serum for blocking, incubation with HI 111 and a secondary antibody (Ultravision, an alkaline phosphate conjugated polymer attached to Fab-fragments of goat anti-mouse Ig), followed by development with Fast Red. The slides were then mounted in Glycergel. Preincubation with peptides added to the AB serum was as follows: A. No peptide added, B. peptide 3028, C. The C-terminal part (3218), and D. The N-terminal part (3325).

[2] = tested on: cell surface receptors of immune cells (ACS); test: Adsorption of enzyme fragmented dHSA on affinity column with biotinylated cell surface proteins (ACS), MALDI-TOF ms; type: binding, human
Protocol: Based on the observation that immunoregulatory peptide sequences are present in serum albumin, there is the possibility that other sequences than the epitope of mAb A have immunoregulatory function. Therefore an artificial cell surface (ACS) was prepared as described in materials and methods. […]
To remove unfragmented albumin and enzyme, the sample was ultra filtered through an Amicon Ultra 4 (mw cut-off of 5000) or a Centriplus (mw cut-off 10000) centrifugal filter (Millipore AB, Solna, Sweden). The filtrate, containing fragmented dHSA without enzymes, was collected and diluted with PBS with Ca and Mg (GIBCO).
Buffy coats generated from 450 ml blood each was collected from 4 healthy donors. Erythrocytes were removed by sedimentation on 2% dextran T500 solution (Amersham Pharmacia Biotech AB, Uppsala Sweden) in 0.9% NaCl. Mononuclear cells (PBMC) were then isolated by Ficoll-Paque Plus (GE Healthcare Bioscience AB Sweden) density gradient centrifugation. The PBMC were then suspended in phosphate buffered saline (PBS) containing Ca and Mg (GIBCO) at a concentration of 10×10^6/ml. EZ Link Sulfo-NHS-biotin (Pierce USA) was added at a final concentration of 0.2 mg/ml and the mixture incubated on a shaker at room temperature for 10 min. Excess biotin was then removed by washing the PBMC in PBS. Biotinylated PBMC were then lysed by adding 1.0 ml ice-cold lysing buffer (50 mM Tris-HCL, pH 7.5, with 0.15 M NaCl, 5 mM MgCl2 containing 100 mM Octyl glucoside and 1 mM Phenylmethylsulfonyl fluoride) per 2×10^7 pelleted cells with gentle shaking, then incubated for 30 min. on ice. Debris was removed by centrifugation at 5000×g at 4° C. for 10 min and the supernatants was collected and pooled from all four donors. The lysate was then stored at −70° C. in polypropylene plastic tubes.
This amount of lysate corresponds to 36×10^7 mononuclear cells. It was added to a 1 ml Hitrap Streptavidin HP affinity column (Amersham Biosciences). To block possible remaining free biotin, 5 ml of 0.1 M glycine (Sigma) was added to the column. Unsaturated streptavidin on the column was then reacted with 150 ug biotin (Sigma) in binding buffer. The column was carefully washed with PBS and stored in PBS with 0.1% NaN3 at 4° C. until use.
27 ml biotinylated cell lysate in binding buffer (corresponding to 54×10^7 mononuclear cells) was added to 1.5 ml washed Streptavidin Sepharose HP (Amersham Biosciences). To block possible remaining free biotin, 25 ml of 0.1 M glycine (Sigma) was added to the Streptavidin Sepharose. Unsaturated streptavidin was then reacted with 225 μg biotin (Sigma) in binding buffer. The Streptavidin Sepharose was carefully washed in PBS. One ml of the biotinylated cell lysate coupled Streptavidin Sepharose was then packed in an empty column (Tricorn Empty High Performance Column, Amersham Bioscience) and washed with phosphate buffered saline (PBS) containing Ca and Mg (GIBCO).
The flow-through was collected with consideration taken to void volume and dilution of adsorbed sample by collecting in small portions of 0.2 ml. Thirty ul of each sample, including a control sample that has not been adsorbed, were dried in a Speed-Vac centrifuge.
Dried samples were reconstituted in 10 ul of 0.1% TFA. Zip Tip pipette tips (Millipore, USA) containing C18 reversed-phase media were used for desalting reconstituted samples. […] For the analysis of samples in the mass range 1500-9000 Da, one μl of each Zip Tip eluted sample was mixed with 1 μl of sinapinic acid ([…]). […] Mass identity search of resulting spectra was performed in the SwissProt or NCBI databases using MS-Fit.

Chain of CD25 (P01589 22-240 limits assumed): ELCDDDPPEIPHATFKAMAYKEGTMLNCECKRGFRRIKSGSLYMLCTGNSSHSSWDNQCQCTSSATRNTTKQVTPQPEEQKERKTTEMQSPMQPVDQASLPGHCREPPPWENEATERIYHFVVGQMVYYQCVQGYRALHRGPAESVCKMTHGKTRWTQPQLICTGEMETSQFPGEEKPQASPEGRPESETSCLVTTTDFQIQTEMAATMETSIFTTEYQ

effect on the binding of IL-2 to CD25 (CD25): enhanced
Sequence: VFDEFKPLVEEPQNLIK [peptide 3028]
effect on binding of the LFA-1 antibody (HI 111) to LFA-1 [1]: Both inhibition (FIG. 24) and enhancement of the binding
Per cent adsorbed ([2]; Table 5 A, peptides generated by trypsin degradation of dHSA): 0.60 Per cent
Per cent adsorbed ([2]; Table 5 B, trypsin peptides selected for synthesis): 0.60 Per cent

Reference: patent publication US9796777B2, “Methods of treating malignant tumors” (Canimguide Therapeutics AB, priority 2007, dated 2017)
